Results reported in US20260001922A1, “PEPTIDES TARGETING SODIUM CHANNELS TO TREAT PAIN” (priority 2022, published 2026).
pIC50: −log10 of the molar value. Positions of bridges follow the written chain, without caps; N, C: chain ends. Non-standard residues stand in square brackets, D forms with d. Residues, ends and D or L forms follow the SMILES beside them. Agb = N=C(N)NCC[C@H](N)C(=O)O

Columns and labels:
human Nav1.7 = human Nav1.7 (Homo sapiens, UniProt Q15858); test: cell-based; settings: for pIC50: whole-cell voltage clamp, HEK 293 cells, read-out: hNav1.7 IC50
Procedure: HEK-293 cells stably expressing human Nav1.1, Nav1.4, Nav1.5, Nav1.6 and Nav1.7 were obtained from Dr. Chris Lossin. Rat Nav1.3 expressing HEK-293 cells were from Dr. Steven Waxman (Yale University, New Haven, CT). These cell lines were cultured in complete DMEM supplemented with 10% FBS, 1% penicillin/streptomycin, and G418. The human Nav1.8 channel (co-expressing with human Navβ1 and Navβ2 subunits) and the Nav1.9 channel (co-expressing with human Trkb, Navβ1, and Navβ2 subunits) were obtained from Icagen (Durham, NC). hNav1.8 cells cultured with G418 (0.4 mg/mL) and puromycin ([…]/mL) and hNav1.9 cells were cultured with G418 (0.4 mg/mL), puromycin ([…]), and zeocin (0.05 mg/mL). Human Nav1.2 were expressed transiently by transfection of the hNav1.2 cDNA (from Dr. Alan L. Goldin, UC Irvine, CA) into HEK-293 cells.
Whole-cell patch-clamp experiments on recombinant channels were conducted manually at room temperature (22-24° C.) using an EPC-10 amplifier (HEKA Electronik, Lambrecht/Pfalz, Germany). Cells were trypsinized and plated onto poly-1-lysine-coated coverslips. All recordings were done in normal Ringer external bath solution containing (in mM) 160 NaCl, 4.5 KCl, 2 CaCl2), 1 MgCl2, 10 HEPES (pH 7.4 and 305 mOsm) as. Patch pipettes were pulled from soda lime glass (micro-hematocrit tubes, Kimble Chase, Rochester, NY) and had resistances of 2-3 MQ when filled with CsF-based internal solution containing (in mM) 10 NaF, 110 CsF, 20 CsCl, 10 HEPES, 2 EGTA, (pH 7.4, 310 mOsm). Data acquisition and analysis were performed with Pulse-PulseFit (HEKA Electronik GmbH, Germany), IgorPro (WaveMetrics, Portland, OR), and Origin 9.0 software (OriginLab Corporation, Northampton, MA). Cells were held at −90 mV and voltage stepped to −120 mV for 200 ms before depolarizing to −10 mV for 50 msec to elicit inward currents. Control test currents were monitored for 5-10 min to ensure that the amplitude and kinetics of the response were stable. Series resistance was compensated to 80-90% and linear leak currents and capacitance artefacts were corrected using a P/4 subtraction method. Pulse interval was 0.1 Hz and peptides were applied to individual cells using a glass transfer pipette directly into the recording bath. For measuring inhibition, currents were allowed to saturate with repeated pulsing before addition of subsequent doses. IC50 values were derived from measurements performed on individual cells that were tested with at least three or more concentrations of each peptide.

human Nav1.2 = molecular target: T1, human Nav1.2 (Homo sapiens, UniProt Q99250); test: cell-based; settings: HEK293, read-out: block of hNav1.2 current (% inhibition)
T1 construct: host or cells: HEK-293 (transient)

human Nav1.5 = human Nav1.5 (Homo sapiens, UniProt Q14524); test: in vitro; format: cell-based; settings: pH 7.4, read-out: block of hNav1.5 current (% inhibition)
human Nav1.4 = human Nav1.4 (Homo sapiens, UniProt P35499); test: cell-based; settings: HEK293, read-out: block of hNav1.4 current (% inhibition)
[1] = test system: rat models of thermal and chemical nociception; parameters: motor effect via intrathecal administration: dose or concentration left out as unconfirmed; settings: cited from earlier work
hNav1.7 = hNav1.7 (Homo sapiens, UniProt Q15858); settings: peptides of the literature; cited from earlier work
Sequence of hNav1.7 (Q15858 whole entry): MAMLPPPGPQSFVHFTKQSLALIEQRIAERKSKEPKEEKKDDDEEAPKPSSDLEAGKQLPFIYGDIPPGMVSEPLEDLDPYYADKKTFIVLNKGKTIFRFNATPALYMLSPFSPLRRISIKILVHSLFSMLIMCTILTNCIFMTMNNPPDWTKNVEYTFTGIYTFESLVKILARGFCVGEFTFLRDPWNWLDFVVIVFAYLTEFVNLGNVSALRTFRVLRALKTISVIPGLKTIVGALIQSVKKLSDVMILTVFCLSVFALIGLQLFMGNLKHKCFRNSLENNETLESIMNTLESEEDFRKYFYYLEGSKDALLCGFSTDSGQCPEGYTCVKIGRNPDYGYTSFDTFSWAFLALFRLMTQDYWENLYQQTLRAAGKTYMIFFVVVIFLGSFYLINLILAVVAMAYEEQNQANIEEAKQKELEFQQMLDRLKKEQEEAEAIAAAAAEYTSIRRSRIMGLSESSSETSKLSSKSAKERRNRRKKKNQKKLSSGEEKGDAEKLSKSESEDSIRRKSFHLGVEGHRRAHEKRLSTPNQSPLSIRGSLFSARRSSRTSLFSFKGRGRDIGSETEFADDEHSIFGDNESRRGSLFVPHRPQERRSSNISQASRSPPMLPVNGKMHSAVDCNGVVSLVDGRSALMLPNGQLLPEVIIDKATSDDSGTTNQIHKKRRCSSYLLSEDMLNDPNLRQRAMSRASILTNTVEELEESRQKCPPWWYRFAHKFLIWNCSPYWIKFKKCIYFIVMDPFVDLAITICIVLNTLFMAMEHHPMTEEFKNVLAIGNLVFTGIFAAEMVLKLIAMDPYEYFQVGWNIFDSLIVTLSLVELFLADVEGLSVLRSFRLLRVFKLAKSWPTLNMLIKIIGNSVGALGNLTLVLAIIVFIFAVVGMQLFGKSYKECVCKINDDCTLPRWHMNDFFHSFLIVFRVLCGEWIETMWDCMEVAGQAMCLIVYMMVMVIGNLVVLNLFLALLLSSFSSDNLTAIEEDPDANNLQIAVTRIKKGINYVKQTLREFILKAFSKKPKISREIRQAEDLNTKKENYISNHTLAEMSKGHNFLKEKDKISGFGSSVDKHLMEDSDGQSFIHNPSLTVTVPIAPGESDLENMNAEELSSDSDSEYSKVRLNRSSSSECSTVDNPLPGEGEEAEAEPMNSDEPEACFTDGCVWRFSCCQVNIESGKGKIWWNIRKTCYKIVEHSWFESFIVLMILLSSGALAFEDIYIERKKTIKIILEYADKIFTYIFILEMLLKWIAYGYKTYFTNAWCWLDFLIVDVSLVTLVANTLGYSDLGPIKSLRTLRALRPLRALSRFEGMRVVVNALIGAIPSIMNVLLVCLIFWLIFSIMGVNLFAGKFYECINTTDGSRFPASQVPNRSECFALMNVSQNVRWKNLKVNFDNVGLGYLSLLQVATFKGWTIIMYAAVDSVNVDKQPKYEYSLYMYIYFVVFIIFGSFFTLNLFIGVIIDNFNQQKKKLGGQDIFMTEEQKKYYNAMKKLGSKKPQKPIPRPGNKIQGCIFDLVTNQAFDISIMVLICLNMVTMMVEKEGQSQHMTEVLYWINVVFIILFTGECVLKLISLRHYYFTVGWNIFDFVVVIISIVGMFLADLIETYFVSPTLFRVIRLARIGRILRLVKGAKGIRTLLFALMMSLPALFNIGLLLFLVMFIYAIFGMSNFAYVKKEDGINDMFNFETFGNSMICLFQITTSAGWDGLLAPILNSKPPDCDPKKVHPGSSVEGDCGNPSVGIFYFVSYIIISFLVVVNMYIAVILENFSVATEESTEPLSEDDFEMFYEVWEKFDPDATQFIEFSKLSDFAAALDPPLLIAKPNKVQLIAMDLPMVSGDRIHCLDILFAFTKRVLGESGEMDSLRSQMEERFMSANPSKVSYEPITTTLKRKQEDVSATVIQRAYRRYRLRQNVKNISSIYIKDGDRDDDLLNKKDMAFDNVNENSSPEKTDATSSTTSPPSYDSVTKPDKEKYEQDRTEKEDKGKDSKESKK

Sequence of human Nav1.7 (Q15858 whole entry): as above
T1 sequence (Q99250 whole entry): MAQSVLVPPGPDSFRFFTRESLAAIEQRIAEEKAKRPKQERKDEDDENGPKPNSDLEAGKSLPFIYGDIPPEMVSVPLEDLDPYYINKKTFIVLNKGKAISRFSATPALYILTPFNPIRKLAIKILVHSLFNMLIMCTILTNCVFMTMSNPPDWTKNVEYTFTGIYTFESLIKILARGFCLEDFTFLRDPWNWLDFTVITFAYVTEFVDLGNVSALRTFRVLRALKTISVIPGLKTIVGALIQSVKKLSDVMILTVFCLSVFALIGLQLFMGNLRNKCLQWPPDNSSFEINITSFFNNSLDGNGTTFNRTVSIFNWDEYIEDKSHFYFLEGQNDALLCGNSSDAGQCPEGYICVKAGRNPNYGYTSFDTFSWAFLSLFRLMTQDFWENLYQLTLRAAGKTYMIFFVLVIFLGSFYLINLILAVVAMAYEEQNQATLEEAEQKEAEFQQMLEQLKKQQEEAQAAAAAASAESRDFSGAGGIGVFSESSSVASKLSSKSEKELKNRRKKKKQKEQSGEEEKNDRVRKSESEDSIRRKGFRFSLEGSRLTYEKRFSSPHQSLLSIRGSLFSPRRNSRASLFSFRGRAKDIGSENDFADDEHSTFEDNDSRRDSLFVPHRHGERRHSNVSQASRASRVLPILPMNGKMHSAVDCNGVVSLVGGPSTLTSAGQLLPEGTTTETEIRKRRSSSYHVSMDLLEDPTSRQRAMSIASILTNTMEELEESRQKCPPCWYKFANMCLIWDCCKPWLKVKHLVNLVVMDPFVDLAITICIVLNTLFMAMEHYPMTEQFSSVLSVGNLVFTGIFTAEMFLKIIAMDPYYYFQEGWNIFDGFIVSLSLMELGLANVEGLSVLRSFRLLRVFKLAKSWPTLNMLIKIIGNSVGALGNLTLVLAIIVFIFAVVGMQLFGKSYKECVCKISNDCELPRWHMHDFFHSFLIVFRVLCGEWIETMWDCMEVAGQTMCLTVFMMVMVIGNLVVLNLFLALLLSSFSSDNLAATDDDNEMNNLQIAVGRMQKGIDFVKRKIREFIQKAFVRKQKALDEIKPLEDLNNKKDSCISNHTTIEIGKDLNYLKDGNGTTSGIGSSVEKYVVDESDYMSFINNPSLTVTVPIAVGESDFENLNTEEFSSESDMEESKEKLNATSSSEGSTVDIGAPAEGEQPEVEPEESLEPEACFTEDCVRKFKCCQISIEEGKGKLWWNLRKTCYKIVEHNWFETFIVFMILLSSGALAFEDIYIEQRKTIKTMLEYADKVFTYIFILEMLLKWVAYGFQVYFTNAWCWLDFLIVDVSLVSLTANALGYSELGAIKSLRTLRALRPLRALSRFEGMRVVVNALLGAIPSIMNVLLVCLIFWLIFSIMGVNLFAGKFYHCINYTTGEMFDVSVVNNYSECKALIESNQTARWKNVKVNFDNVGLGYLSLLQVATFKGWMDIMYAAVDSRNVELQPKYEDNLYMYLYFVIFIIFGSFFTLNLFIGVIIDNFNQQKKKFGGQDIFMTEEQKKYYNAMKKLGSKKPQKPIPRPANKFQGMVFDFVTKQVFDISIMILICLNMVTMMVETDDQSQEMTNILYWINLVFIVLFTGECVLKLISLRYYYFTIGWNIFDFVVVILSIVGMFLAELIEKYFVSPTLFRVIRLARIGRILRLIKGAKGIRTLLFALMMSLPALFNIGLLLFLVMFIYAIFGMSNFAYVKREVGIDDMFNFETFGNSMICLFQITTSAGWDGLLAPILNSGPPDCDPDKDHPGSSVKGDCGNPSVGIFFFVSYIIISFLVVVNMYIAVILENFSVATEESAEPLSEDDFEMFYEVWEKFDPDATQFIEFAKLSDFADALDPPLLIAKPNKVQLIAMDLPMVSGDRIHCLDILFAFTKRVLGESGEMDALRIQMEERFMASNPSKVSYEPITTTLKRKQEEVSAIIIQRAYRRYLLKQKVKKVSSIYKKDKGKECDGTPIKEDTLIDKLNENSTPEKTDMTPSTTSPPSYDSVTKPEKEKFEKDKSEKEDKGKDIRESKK

CC(C)C[C@@H]1NC(=O)CNC(=O)[C@H](CCC(=O)O)NC(=O)[C@@H]2CSSC[C@H](NC(=O)[C@@H](N)Cc3ccc(O)cc3)C(=O)N[C@@H](CCC(N)=O)C(=O)N[C@@H](CCCCN)C(=O)N[C@@H](C)C(=O)N[C@@H](Cc3ccccc3)C(=O)N[C@@H](Cc3c[nH]c4ccccc34)C(=O)N[C@@H]([C@@H](C)O)C(=O)N[C@H]3CSSC[C@H](NC(=O)[C@H](CCCNC(=N)N)NC1=O)C(=O)N[C@@H](CCNC(=N)N)C(=O)N[C@@H](CC(C)C)C(=O)N[C@@H](Cc1c[nH]c4ccccc14)C(=O)N[C@H](C(=O)N[C@@H](CCCCN)C(=O)N[C@@H](CCCCN)C(=O)N[C@@H](CCC(=O)O)C(=O)N[C@@H](CC(C)C)C(=O)N[C@@H](Cc1c[nH]c4ccccc14)C(N)=O)CSSC[C@H](NC(=O)[C@H](CCCCN)NC(=O)[C@H](CCCNC(=N)N)NC(=O)[C@H](CCC(=O)O)NC(=O)[C@H](CO)NC(=O)[C@H](CC(=O)O)NC3=O)C(=O)N2 [PTx2-2954]
effect on hNav1.7 currents (human Nav1.7; at 5 μM): no effect

CC(C)C[C@@H]1NC(=O)CNC(=O)[C@H](CCC(=O)O)NC(=O)[C@@H]2CSSC[C@H](NC(=O)[C@@H](N)Cc3ccc(O)cc3)C(=O)N[C@@H](CCC(N)=O)C(=O)N[C@@H](CCCCN)C(=O)N[C@@H](C)C(=O)N[C@@H](Cc3ccccc3)C(=O)N[C@@H](Cc3c[nH]c4ccccc34)C(=O)N[C@@H]([C@@H](C)O)C(=O)N[C@H]3CSSC[C@H](NC(=O)[C@H](CCCNC(=N)N)NC1=O)C(=O)N[C@@H](CCNC(=N)N)C(=O)N[C@@H](CC(C)C)C(=O)N[C@@H](Cc1c[nH]c4ccccc14)C(=O)N[C@H](C(=O)N[C@@H](CCCNC(=N)N)C(=O)N[C@@H](CCCCN)C(=O)N[C@@H](CCC(=O)O)C(=O)N[C@@H](CC(C)C)C(=O)N[C@@H](Cc1c[nH]c4ccccc14)C(N)=O)CSSC[C@H](NC(=O)[C@H](CCCCN)NC(=O)[C@H](CCCNC(=N)N)NC(=O)[C@H](CCC(=O)O)NC(=O)[C@H](CO)NC(=O)[C@H](CC(=O)O)NC3=O)C(=O)N2 [PTx2-2955]
pIC50 (human Nav1.7): 6.73

CC(C)C[C@@H]1NC(=O)CNC(=O)[C@H](CCC(=O)O)NC(=O)[C@@H]2CSSC[C@H](NC(=O)[C@@H](N)Cc3ccc(O)cc3)C(=O)N[C@@H](CCC(N)=O)C(=O)N[C@@H](CCCCN)C(=O)N[C@@H](C)C(=O)N[C@@H](Cc3ccccc3)C(=O)N[C@@H](Cc3c[nH]c4ccccc34)C(=O)N[C@@H]([C@@H](C)O)C(=O)N[C@H]3CSSC[C@H](NC(=O)[C@H](CCCNC(=N)N)NC1=O)C(=O)N[C@@H](CCNC(=N)N)C(=O)N[C@@H](CC(C)C)C(=O)N[C@@H](Cc1c[nH]c4ccccc14)C(=O)N[C@H](C(=O)N[C@@H](CCCNC(=N)N)C(=O)N[C@@H](CCCCN)C(=O)N[C@@H](CCC(=O)O)C(=O)N[C@@H](CC(C)C)C(=O)N[C@@H](Cc1c[nH]c4ccccc14)C(N)=O)CSSC[C@H](NC(=O)[C@H](CCCCN)NC(=O)[C@H](CCCNC(=N)N)NC(=O)[C@H](C)NC(=O)[C@H](CO)NC(=O)[C@H](CC(=O)O)NC3=O)C(=O)N2 [PTx2-3063] (H-YCQKAFWTCDSARKCCEGLRC[Agb]LWCRKELW-NH2; disulfide 2-16, 9-21, 15-25)
pIC50 (human Nav1.7): 6.81

CC(C)C[C@@H]1NC(=O)CNC(=O)[C@H](CCC(=O)O)NC(=O)[C@@H]2CSSC[C@H](NC(=O)[C@@H](N)Cc3ccc(O)cc3)C(=O)N[C@@H](CCC(N)=O)C(=O)N[C@@H](CCCCN)C(=O)N[C@@H](C)C(=O)N[C@@H](Cc3ccccc3)C(=O)N[C@@H](Cc3c[nH]c4ccccc34)C(=O)N[C@@H]([C@@H](C)O)C(=O)N[C@H]3CSSC[C@H](NC(=O)[C@H](CCCNC(=N)N)NC1=O)C(=O)N[C@@H](CCCNC(=N)N)C(=O)N[C@@H](CC(C)C)C(=O)N[C@@H](Cc1c[nH]c4ccccc14)C(=O)N[C@H](C(=O)N[C@@H](CCCNC(=N)N)C(=O)N[C@@H](CCCCN)C(=O)N[C@@H](CCC(=O)O)C(=O)N[C@@H](CC(C)C)C(=O)N[C@@H](Cc1c[nH]c4ccccc14)C(N)=O)CSSC[C@H](NC(=O)[C@H](CCCCN)NC(=O)[C@H](CCCNC(=N)N)NC(=O)[C@H](C)NC(=O)[C@H](CO)NC(=O)[C@H](CC(=O)O)NC3=O)C(=O)N2 [PTx2-3064] (H-YCQKAFWTCDSARKCCEGLRCRLWCRKELW-NH2; disulfide 2-16, 9-21, 15-25)
inhibition at 10 µM (human Nav1.2): ~92% | inhibition at 10 µM (human Nav1.5): ~25% | inhibition at 10 µM (human Nav1.4): ~66%

CSCC[C@@H]1NC(=O)[C@H](Cc2c[nH]c3ccccc23)NC(=O)[C@H](CCCCN)NC(=O)[C@H](CCC(N)=O)NC(=O)[C@@H](NC(=O)[C@@H](N)Cc2ccc(O)cc2)CSSC[C@@H]2NC(=O)[C@@H]3CSSC[C@@H](C(=O)N[C@@H](CCCNC(=N)N)C(=O)N[C@@H](CCCCN)C(=O)N[C@@H](CCC(=O)O)C(=O)N[C@@H](CC(C)C)C(=O)N[C@@H](CC(C)C)C(N)=O)NC(=O)[C@H](Cc4c[nH]c5ccccc45)NC(=O)[C@H](CC(C)C)NC(=O)[C@H](CCCNC(=N)N)NC(=O)[C@H](CSSC[C@H](NC(=O)[C@H]([C@@H](C)O)NC(=O)[C@H](CCC(N)=O)NC1=O)C(=O)N[C@@H](CC(=O)O)C(=O)N[C@@H](CCCCN)C(=O)N[C@@H](CC(=O)O)C(=O)N[C@@H](CCCNC(=N)N)C(=O)N[C@@H](CCCCN)C(=O)N3)NC(=O)[C@H](CCCNC(=N)N)NC(=O)[C@H](CC(C)C)NC(=O)CNC(=O)[C@H](CCC(=O)O)NC2=O [PTx2-3066] (H-YCQKWMQTCDKDRKCCEGLRCRLWCRKELL-NH2; disulfide 2-16, 9-21, 15-25)
pIC50 (human Nav1.7): 7.51 | inhibition at 10 µM (human Nav1.2): ~41% | inhibition at 10 µM (human Nav1.5): ~1% | inhibition at 10 µM (human Nav1.4): ~34%

CSCC[C@@H]1NC(=O)CNC(=O)[C@H](CCC(=O)O)NC(=O)[C@@H]2CSSC[C@H](NC(=O)[C@@H](N)Cc3ccc(O)cc3)C(=O)N[C@@H](CCC(N)=O)C(=O)N[C@@H](CCCCN)C(=O)N[C@@H](Cc3c[nH]c4ccccc34)C(=O)N[C@@H](CCSC)C(=O)N[C@@H](Cc3c[nH]c4ccccc34)C(=O)N[C@@H]([C@@H](C)O)C(=O)N[C@H]3CSSC[C@H](NC(=O)[C@H](C(C)C)NC1=O)C(=O)N[C@@H](CCCNC(=N)N)C(=O)N[C@@H](CC(C)C)C(=O)N[C@@H](Cc1c[nH]c4ccccc14)C(=O)N[C@H](C(=O)N[C@@H](CCCCN)C(=O)N[C@@H](CCCCN)C(=O)N[C@@H](CCCCN)C(=O)N[C@@H](CC(C)C)C(=O)N[C@@H](Cc1c[nH]c4ccccc14)C(=O)O)CSSC[C@H](NC(=O)[C@H](CCCCN)NC(=O)[C@H](CCCNC(=N)N)NC(=O)[C@H](CCC(=O)O)NC(=O)[C@H](CO)NC(=O)[C@H](CC(=O)O)NC3=O)C(=O)N2 [ProTx-II]
effect on nociceptive assays ([1]; 0.24 μg i.t., Merck's study): no effect | motor effect via intrathecal administration ([1]; Merck's study): laming effect | maximum tolerated dose ([1]; in 10 μL, rats, Janssen's study): 2 µg | analgesic effect following intrathecal injection ([1]; rat models of thermal and chemical nociception, Janssen Biotech): strong analgesic effect

DCLKFGWKCNPRNDKCCSGLKSGSNHNWCKLHL [ProTx-III]
pIC50 (hNav1.7): 7.94

ECQKWMWTCDSARACCEGLRCKLWCRKII [JzTx-V]
pIC50 (hNav1.7): 9.22
